# Test results taken from patent US20190195897A1, “GLYCOSYLATED METABOLITES” (UNIVERSITEIT LEIDEN, priority 2015, published 2019).
# Assays:
# GBA2 = biological target: T1, GBA2 (Mus musculus, UniProt Q69ZF3); experiment: Degradation of GlcChol by GBA2; assay type: biochemical, murine; details: GBA2, input 18 nmol 4MU-β-Glc hydrolysis per ml/h
# T1 construct: Myc-His (C); expressed in transfected cells; host or cells: COS-7 cells, used as homogenate/lysate
# T1 sequence (Q69ZF3 1-918): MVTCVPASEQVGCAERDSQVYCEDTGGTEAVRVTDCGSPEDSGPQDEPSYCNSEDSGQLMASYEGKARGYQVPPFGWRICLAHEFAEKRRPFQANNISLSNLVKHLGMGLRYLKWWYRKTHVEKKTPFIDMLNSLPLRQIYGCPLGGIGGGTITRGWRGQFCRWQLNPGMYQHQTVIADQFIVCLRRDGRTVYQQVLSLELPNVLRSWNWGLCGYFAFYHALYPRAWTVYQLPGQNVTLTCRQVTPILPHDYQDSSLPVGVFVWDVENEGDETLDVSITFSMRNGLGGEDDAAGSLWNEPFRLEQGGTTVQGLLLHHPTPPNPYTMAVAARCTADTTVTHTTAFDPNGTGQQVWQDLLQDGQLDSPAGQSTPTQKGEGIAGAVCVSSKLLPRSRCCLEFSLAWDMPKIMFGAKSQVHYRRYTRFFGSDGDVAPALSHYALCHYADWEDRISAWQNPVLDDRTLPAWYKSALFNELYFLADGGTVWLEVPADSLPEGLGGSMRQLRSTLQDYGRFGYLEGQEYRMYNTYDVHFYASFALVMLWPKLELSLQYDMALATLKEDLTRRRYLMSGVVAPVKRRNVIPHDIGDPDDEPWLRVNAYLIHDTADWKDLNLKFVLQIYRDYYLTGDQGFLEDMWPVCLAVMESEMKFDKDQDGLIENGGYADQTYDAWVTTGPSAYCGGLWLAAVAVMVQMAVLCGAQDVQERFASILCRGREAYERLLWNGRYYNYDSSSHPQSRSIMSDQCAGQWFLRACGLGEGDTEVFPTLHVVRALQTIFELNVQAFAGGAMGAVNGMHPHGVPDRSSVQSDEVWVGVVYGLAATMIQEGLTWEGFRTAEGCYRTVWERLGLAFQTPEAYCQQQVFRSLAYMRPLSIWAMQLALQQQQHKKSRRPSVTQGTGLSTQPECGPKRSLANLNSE
# Text: Both GBA and GBA2, but not GBA3, are able to degrade by hydrolysis as well as synthesize GlcChol at conditions optimal for degradation of 4MU-8-glucoside (FIG. 1D; supplemental Table 1). […] This ability of the several GBA's to hydrolyze as well as synthesize GlcChol was studied in vitro using 25-NBD-cholesterol as acceptor and detection of 25-NBD-glucoside formation by TLC and fluorescence scanning. As source of enzyme rGBA1 was used and GBA2 and GBA3 were individually overexpressed in COST-cells. Overexpression of enzymes was checked by measuring enzymatic activity with appropriate assays and visualization of enzymes with the broad-specificity β-glucopyranosyl cyclophellitolaziridine-type ABP (38). rGBA1 and lysates of GBA2 and GBA3 overexpressing cells were incubated with natural glucosylceramide (C16:0-GloCer or C18:1-GlcCer) as donors and 25-NBD-cholesterol as acceptor. […]
# Homogenates of COS-7 cells overexpressing GBA2 and/or GCS, were analyzed for enzymatic activity of GBA2 using artificial 4MU-Glc substrate as earlier described (38). […] The reaction was terminated by addition of 1.25 mL stop-buffer (0.3 M Glycine/NaOH, pH 10.6) and the released 4MU was measured with a LS55 Fluorescence Spectrometer (Perkin-Elmer, Waltham, Mass., USA).
# [1] = biological target: T2, recombinant GBA1 (rGBA1, Cerezyme) (Homo sapiens, UniProt P04062, R534H); experiment: Degradation of GlcChol by rGBA1; assay type: biochemical
# T2 construct: purchased Genzyme (Genzyme Nederland, Naarden, The Netherlands)
# T2 sequence (P04062 40-536 R534H): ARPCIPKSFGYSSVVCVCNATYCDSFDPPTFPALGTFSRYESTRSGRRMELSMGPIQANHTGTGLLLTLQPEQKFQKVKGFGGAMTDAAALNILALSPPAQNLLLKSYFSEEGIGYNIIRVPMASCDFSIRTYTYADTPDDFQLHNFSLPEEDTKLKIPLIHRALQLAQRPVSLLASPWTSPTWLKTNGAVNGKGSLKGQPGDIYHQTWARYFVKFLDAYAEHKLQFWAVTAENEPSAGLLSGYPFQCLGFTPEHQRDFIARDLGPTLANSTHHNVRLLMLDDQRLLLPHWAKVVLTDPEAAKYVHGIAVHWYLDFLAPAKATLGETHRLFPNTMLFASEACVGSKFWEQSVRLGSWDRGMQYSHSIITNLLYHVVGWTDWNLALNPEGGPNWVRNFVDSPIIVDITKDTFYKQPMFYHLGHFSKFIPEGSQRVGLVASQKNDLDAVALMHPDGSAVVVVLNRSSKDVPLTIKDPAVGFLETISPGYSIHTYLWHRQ
# Experimental: FIG. 1D: Linearity of GlcChol quantification and its complete digestion with rGBAl. (5 IU) for 60 min at 37 C.
# The physiological significance of glucosylation of cholesterol is hypothetically great since it renders the molecule far more water soluble. To establish whether GlcChol physiologically occurs in mammals, firstly a LC-MS/MS procedure was developed for its quantitative detection. For this purpose, a ^13C-isotope labeled cholesterolglucoside was synthesized to be used as internal standard in sensitive quantitative detection of GlcChol by LC-MS/MS. The use of the isotope labeled compound as internal standard avoids the need for corrections for extraction efficiency, chromatographic behavior and ionization efficiency, during quantification GlcChol. […] The limit of detection (LOD) was 0.5 pmol/mL plasma, with a signal to noise ratio of 3 and a limit of quantitation (LOQ) of 0.9 pmol/mL plasma with a signal to noise ratio of 10.
# Both GBA and GBA2, but not GBA3, are able to degrade by hydrolysis as well as synthesize GlcChol at conditions optimal for degradation of 4MU-8-glucoside (FIG. 1D; supplemental Table 1). […] This ability of the several GBA's to hydrolyze as well as synthesize GlcChol was studied in vitro using 25-NBD-cholesterol as acceptor and detection of 25-NBD-glucoside formation by TLC and fluorescence scanning. […]
structure (smiles),measurement,setting,value
"CC(C)CCC[C@@H](C)[C@H]1CC[C@H]2[C@@H]3CC=C4C[C@@H](O[C@@H]5O[C@H](CO)[C@@H](O)[C@H](O)[C@H]5O)CC[C@]4(C)[C@H]3CC[C@]12C [GlcChol, 1-O-cholesteryl-β-D-glucopyranoside]",Percentage digestion GlcChol after 1 h (10 nmole),GBA2,83%
same,substrate for recombinant GBA1,[1]; even at sub-optimal conditions (absence of Triton-X-100 and sodium taurocholate),excellent substrate
same,Percentage digestion GlcChol after 1 h (10 nmole),"[1]; rGBA1, input 15 nmol 4MU-β-Glc hydrolysis per ml/h",95%
